From ChEMBL document CHEMBL4680278 (J Med Chem, 2020) come the findings set out here.

Structures are written as SMILES.

The nature of data set [1]: Volume of distribution in human at 20 mg, iv measured after 0.05 to 72 hrs by gas chromatograph mass spectrometry. In kind it is ADME, organism-based. As to conditions: in vivo, time 0.05-72 hrs.
The nature of data set [2]: Elimination half-life in human at 10 mg, po using PTL401 formulation measured upto 24 hrs by LC-MS/MS assay. In kind it is ADME, organism-based. Particulars: in vivo, read-out: beta t1/2 (converted).
The next data set has as its target T1, Cytochrome P450 1B1 (Homo sapiens, UniProt Q16678).
T1 sequence (Q16678 whole entry): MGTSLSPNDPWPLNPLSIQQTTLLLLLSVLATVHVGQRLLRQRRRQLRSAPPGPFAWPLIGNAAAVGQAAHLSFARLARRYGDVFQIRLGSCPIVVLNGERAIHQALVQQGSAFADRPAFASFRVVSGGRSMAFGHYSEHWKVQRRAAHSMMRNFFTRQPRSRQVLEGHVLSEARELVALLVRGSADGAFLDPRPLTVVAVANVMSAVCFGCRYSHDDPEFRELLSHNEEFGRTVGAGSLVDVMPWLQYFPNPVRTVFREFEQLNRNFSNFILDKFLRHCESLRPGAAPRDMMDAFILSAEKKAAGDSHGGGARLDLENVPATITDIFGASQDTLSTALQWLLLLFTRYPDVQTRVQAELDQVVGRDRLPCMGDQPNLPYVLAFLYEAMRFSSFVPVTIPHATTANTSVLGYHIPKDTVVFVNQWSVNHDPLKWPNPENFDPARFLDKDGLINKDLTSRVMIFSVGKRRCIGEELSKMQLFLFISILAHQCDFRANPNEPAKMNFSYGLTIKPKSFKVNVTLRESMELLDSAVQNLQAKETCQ
Briefly: Competitive inhibition of human recombinant CYP1B1 using 7-Ethoxyresorufin as substrate by Lineweaver-Burk plot analysis. In kind it is ADME. As to conditions: read-out: Ki(app).

Data set [3] is described as follows: Half-life in human at 10 mg/kg, po BID administered for 6 weeks measured weekly for 15 weeks by GC/MS analysis. The data set is classed as ADME, organism-based. Particulars: in vivo.
Data set [4] in a line: Apparent oral clearance in human at 5 to 20 mg using oromucosal-spray formulation by GC-MS analysis. In kind it is ADME. As to conditions: in vivo, dose 5-20 mg.
A further data set has as its target T2, Cytochrome P450 2A6 (Homo sapiens, UniProt P11509).
T2 sequence (P11509 whole entry): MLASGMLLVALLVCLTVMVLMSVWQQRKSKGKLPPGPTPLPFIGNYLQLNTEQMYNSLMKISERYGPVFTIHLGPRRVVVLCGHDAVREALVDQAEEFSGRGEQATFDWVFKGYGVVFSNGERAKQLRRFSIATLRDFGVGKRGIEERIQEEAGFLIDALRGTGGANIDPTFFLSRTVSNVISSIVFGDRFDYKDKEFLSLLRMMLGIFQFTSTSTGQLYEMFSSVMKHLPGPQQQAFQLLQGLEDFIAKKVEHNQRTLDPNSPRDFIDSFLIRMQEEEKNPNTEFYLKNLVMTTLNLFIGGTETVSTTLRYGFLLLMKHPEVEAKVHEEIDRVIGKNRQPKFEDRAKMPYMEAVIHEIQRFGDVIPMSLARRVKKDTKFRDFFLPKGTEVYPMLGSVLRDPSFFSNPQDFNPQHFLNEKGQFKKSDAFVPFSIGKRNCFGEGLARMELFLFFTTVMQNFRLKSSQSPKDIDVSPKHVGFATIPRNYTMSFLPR
Put plainly: Non-competitive inhibition of human recombinant CYP2A6 expressed in baculovirus-infected insect cells using coumarin as substrate preincubated for 5 mins followed by NADPH-generating system addition by Lineweaver-Burk plot analysis. In kind it is ADME.

In the next data set the target is Cytochrome P450 3A5 (Homo sapiens, UniProt P20815). Put plainly: Competitive inhibition of human recombinant CYP3A5 expressed in baculovirus-infected insect cells using diltiazem as substrate incubated for 15 mins followed by NADPH-generating system addition by Michaelis-Menten plot analysis. The data set is classed as ADME.
Chain of Cytochrome P450 3A5 (P20815 whole entry): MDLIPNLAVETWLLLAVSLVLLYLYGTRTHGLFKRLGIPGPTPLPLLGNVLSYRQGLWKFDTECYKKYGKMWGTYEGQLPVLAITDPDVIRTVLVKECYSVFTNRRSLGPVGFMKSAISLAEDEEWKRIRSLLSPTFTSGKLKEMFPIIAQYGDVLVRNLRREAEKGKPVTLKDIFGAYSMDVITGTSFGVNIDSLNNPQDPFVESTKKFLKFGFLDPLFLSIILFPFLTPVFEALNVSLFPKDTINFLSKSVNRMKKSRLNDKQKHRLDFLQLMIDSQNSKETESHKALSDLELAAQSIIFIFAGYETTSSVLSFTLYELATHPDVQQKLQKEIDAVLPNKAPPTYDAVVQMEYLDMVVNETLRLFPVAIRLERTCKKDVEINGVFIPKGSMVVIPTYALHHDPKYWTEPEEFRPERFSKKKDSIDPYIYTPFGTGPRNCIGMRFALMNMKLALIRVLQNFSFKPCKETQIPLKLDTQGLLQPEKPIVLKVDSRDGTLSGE

Turning to `C=C(C)[C@@H]1CCC(C)=C[C@H]1c1c(O)cc(CCCCC)cc1O` [CANNABIDIOL], in data set [1], the distribution volume (Vd) turned out to be 2520 L. Moreover, the half-life in data set [2] was 120 min; in data set [3] it was 2880 min. Besides, the Ki came out at 3.63 µM on Cytochrome P450 1B1, 55 µM at Cytochrome P450 2A6 and 190 nM at Cytochrome P450 3A5. Further, the apparent clearance CL/F in data set [4] was 41700 mL/min.
